Patent US6762326B2, “C2-substituted idan-1-ones and their derivatives, processes for their preparation and their use as pharmaceuticals” (Aventis Pharma Deutschland GmbH, priority 2001, dated 2004)

Tested on: female NMRI mice
Assay: Anorectic action: cumulative evaporated milk consumption after 24 h feed removal
Type: in vivo
Details: versus control animals
Method: The anorectic action was tested on female NMRI mice. After removal of feed for 24 hours, the preparation to be tested was administered intraperitoneally (ip) or by gavage (po). The animals were housed singly and, with free access to drinking water, they were offered evaporated milk 30 minutes after administration of the preparation. The consumption of evaporated milk was determined and the general behavior of the animals was monitored every half an hour for 7 hours. The measured milk consumption was compared to that of vehicle-treated control animals.

CSC1Cc2cc(Cl)ccc2C1=O (stereo not drawn) [Example 1, 5-Chloro-2-methylsulfanylindan-1-one]
Reduction in cumulative milk consumption as % of the control (10 mg/kg ip): 64%

CS(=O)(=O)C1Cc2cc(Cl)ccc2C1=O (stereo not drawn) [Example 2, 5-Chloro-2-methanesulfonylindan-1-one]
Reduction in cumulative milk consumption as % of the control (20 mg/kg ip): 70%

C[S+]([O-])C1Cc2cc(Cl)ccc2C1=O (stereo not drawn) [Example 9, 5-chloro-2-methanesulfinylindan-1-one]
Reduction in cumulative milk consumption as % of the control (50 mg/kg po): 73%
